ChEMBL document CHEMBL5143510, “Structure modification and biological evaluation of indole-chalcone derivatives as anti-tumor agents through dual targeting tubulin and TrxR” (Eur J Med Chem, 2022)
Where a name gives a salt, the structure may show the parent alone.

What was measured:
A2780 = assay: Antiproliferative activity against human A2780 cells assessed as reduction in cell viability incubated for 48 hrs by MTT assay; format: functional, cell-based; settings: A2780, 48 h
HeLa = assay: Antiproliferative activity against human HeLa cells assessed as reduction in cell viability incubated for 48 hrs by MTT assay; format: functional, cell-based
A549 = assay: Antiproliferative activity against human A549 cells assessed as reduction in cell viability incubated for 48 hrs by MTT assay; format: functional, cell-based; settings: A549, 48 h
MHCC97H [1] = assay: Antiproliferative activity against human MHCC97H cells assessed as reduction in cell viability incubated for 48 hrs by MTT assay; format: functional, cell-based
HCT-8 = assay: Antiproliferative activity against human HCT-8 cells assessed as reduction in cell viability incubated for 48 hrs by MTT assay; format: functional, cell-based; settings: HCT-8, 48 h
MCF7 = assay: Antiproliferative activity against human MCF7 cells assessed as reduction in cell viability incubated for 48 hrs by MTT assay; format: functional, cell-based; settings: MCF7, 48 h
[2] = Antiproliferative activity against vincristine resistant human HCT-8/VCR cells assessed as reduction in cell viability incubated for 48 hrs by MTT assay; format: functional, cell-based
[3] = Resistance index, ratio of IC50 for antiproliferative activity against vincristine resistant human HCT-8/VCR cells to IC50 for antiproliferative activity against human HCT-8 cells; format: functional
MHCC97H [4] = assay: Antitumor activity against human MHCC97H cells xenografted in BALB/c mouse assessed as tumor growth inhibition at 30 mg/kg, ip administered every other day for 30 days; format: functional; settings: 720 h, time 30 day, read-out: TGI
MHCC97H [5] = assay: Antitumor activity against human MHCC97H cells xenografted in BALB/c mouse assessed as tumor weight at 30 mg/kg, ip administered every other day for 30 days; format: functional; settings: time 30 day
MHCC97H [6] = assay: Antitumor activity against human MHCC97H cells xenografted in BALB/c mouse assessed as tumor volume at 30 mg/kg, ip administered every other day for 30 days; format: functional; settings: time 30 day
[7] = Inhibition of TrxR (unknown origin) using DTNB as substrate incubated for 5 mins in presence of NADPH followed by substrate addition by microplate reader analysis; design: species or system Homo sapiens
[8] = Inhibition of TrxR in human MHCC97H cells using DTNB as substrate preincubated for 24 hrs in presence of NADPH followed by substrate addition by microplate reader analysis; format: cell-based
[9] = Resistance index, ratio of IC50 for antiproliferative activity against paclitaxel resistant human A2780/PTX cells to IC50 for antiproliferative activity against human A2780 cells; format: functional
[10] = Antiproliferative activity against paclitaxel resistant human A2780/PTX cells assessed as reduction in cell viability incubated for 48 hrs by MTT assay; format: functional, cell-based
NCI/ADR-RES = assay: Antiproliferative activity against adriamycin resistant human MCF7/ADR cells assessed as reduction in cell viability incubated for 48 hrs by MTT assay; format: functional, cell-based

| Compound | IC50 (A2780) | IC50 (HeLa) | IC50 (A549) | IC50 (HCT-8) | IC50 (MCF7) | IC50 (MHCC97H [1]) | further results |
| --- | --- | --- | --- | --- | --- | --- | --- |
| COc1cc(C(=O)/C(C)=C/c2cn(C)c3ccccc23)cc([Se]C)c1OC | 35 nM | 63 nM | 18 nM | 48 nM | 77 nM | 26 nM |  |
| CC[C@]1(O)C[C@H]2CN(CCc3c([nH]c4ccccc34)[C@@](C(=O)OC)(c3cc4c(cc3OC)N(C=O)[C@H]3[C@@](O)(C(=O)OC)[C@H](OC(C)=O)[C@]5(CC)C=CCN6CC[C@]43[C@@H]65)C2)C1 [VINCRISTINE] |  |  |  | 217 nM |  |  | IC50 [2]: 10200 nM; Ratio IC50 [3]: 47 |
| COc1ccc(/C=C\c2cc(OC)c(OC)c(OC)c2)cc1OP(=O)(O)O [FOSBRETABULIN] |  |  |  |  |  |  | inhibition in vivo at 30 mg/kg (MHCC97H [4]): 39.2%; Activity (MHCC97H [5]): 0.888 g; Activity (MHCC97H [6]): 1031.1 mm3 |
| COc1ccc(/C=C\c2cc(OC)c(OC)c(OC)c2)cc1O [COMBRETASTATIN A4] |  | 16 nM |  | 23 nM | 29 nM | 8 nM |  |
| COc1cc(/C=C/C(=O)CC(=O)/C=C/c2ccc(O)c(OC)c2)ccc1O [CURCUMIN] |  |  |  |  |  |  | IC50 [7]: 29000 nM; IC50 [8]: 28800 nM |
| CC(=O)O[C@H]1C(=O)[C@@]2(C)[C@H]([C@H](OC(=O)c3ccccc3)[C@]3(O)C[C@H](OC(=O)[C@H](O)[C@@H](NC(=O)c4ccccc4)c4ccccc4)C(C)=C1C3(C)C)[C@]1(OC(C)=O)CO[C@@H]1C[C@@H]2O [PACLITAXEL] | 21 nM |  |  |  |  |  | Ratio IC50 [9]: 16.4; IC50 [10]: 344 nM |
| COc1cccc2c1C(=O)c1c(O)c3c(c(O)c1C2=O)C[C@@](O)(C(=O)CO)C[C@@H]3O[C@H]1C[C@H](N)[C@H](O)[C@H](C)O1 [DOXORUBICIN HYDROCHLORIDE] |  |  |  |  |  |  | IC50 (NCI/ADR-RES): 232000 nM |
| COc1cc(C(=O)/C=C/c2c[nH]c3ccccc23)cc([N+](=O)[O-])c1OC | 1280 nM | 1350 nM | 1510 nM | 1390 nM | 1290 nM | 830 nM |  |
| COc1cc(C(=O)/C=C/c2cn(C)c3ccccc23)cc([N+](=O)[O-])c1OC | 1890 nM | 1960 nM | 1060 nM | 1660 nM | 1770 nM | 850 nM |  |
| O=c1c2ccccc2[se]n1CCn1[se]c2ccccc2c1=O |  |  |  |  |  |  | inhibition in vivo at 30 mg/kg (MHCC97H [4]): 51.7%; Activity (MHCC97H [5]): 1.119 g; Activity (MHCC97H [6]): 832.6 mm3 |
| COc1cc(C(=O)/C=C/c2cn(C)c3ccccc23)cc(SC)c1OC | 193 nM | 105 nM | 188 nM | 210 nM | 102 nM | 150 nM |  |
| COc1cc(C(=O)/C=C/c2cn(C)c3ccccc23)cc(N)c1OC | 441 nM | 668 nM | 498 nM | 605 nM | 631 nM | 289 nM |  |

More lines, main results first:

| IC50 (A2780) | IC50 (HeLa) | IC50 (A549) | IC50 (HCT-8) | IC50 (MCF7) | Compound | IC50 (MHCC97H [1]) | further results |
| --- | --- | --- | --- | --- | --- | --- | --- |
| 65 nM | 104 nM | 67 nM | 78 nM | 83 nM | COc1ccc2c(/C=C/C(=O)c3cc(OC)c(OC)c([Se]C)c3)c[nH]c2c1 | 58 nM |  |
| 139 nM | 131 nM | 115 nM | 138 nM | 101 nM | COc1ccc2c(/C=C/C(=O)c3cc(OC)c(OC)c(SC)c3)c[nH]c2c1 | 112 nM |  |
| 351 nM | 529 nM | 342 nM | 577 nM | 595 nM | COc1cc(C(=O)/C=C/c2c[nH]c3ccccc23)cc(N)c1OC | 263 nM |  |
| 952 nM | 951 nM | 1020 nM | 753 nM | 1520 nM | COc1ccc2c(/C=C/C(=O)c3cc(OC)c(OC)c([N+](=O)[O-])c3)cn(C)c2c1 | 562 nM |  |
| 145 nM | 167 nM | 156 nM | 157 nM | 166 nM | COc1ccc2c(/C=C/C(=O)c3cc(OC)c(OC)c(SC)c3)cn(C)c2c1 | 122 nM |  |
| 156 nM | 356 nM | 106 nM | 455 nM | 505 nM | COc1ccc2c(/C=C/C(=O)c3cc(N)c(OC)c(OC)c3)cn(C)c2c1 | 198 nM |  |
| 742 nM | 850 nM | 331 nM | 982 nM | 662 nM | COc1ccc2c(/C=C/C(=O)c3cc(OC)c(OC)c([N+](=O)[O-])c3)c[nH]c2c1 | 289 nM |  |
| 204 nM | 155 nM | 193 nM | 368 nM | 249 nM | COc1ccc2c(/C=C/C(=O)c3cc(N)c(OC)c(OC)c3)c[nH]c2c1 | 186 nM |  |
| 25 nM | 34 nM | 12 nM | 32 nM | 59 nM | COc1cc(C(=O)/C(C)=C/c2c[nH]c3ccccc23)cc([Se]C)c1OC | 18 nM |  |
| 169 nM | 159 nM | 152 nM | 167 nM | 186 nM | COc1cc(C(=O)/C=C/c2c[nH]c3ccccc23)cc(SC)c1OC | 131 nM |  |
| 26 nM | 32 nM | 15 nM | 25 nM | 44 nM | COc1ccc2c(/C=C(\C)C(=O)c3cc(OC)c(OC)c([Se]C)c3)cn(C)c2c1 | 15 nM |  |
